Target: T1, Protease (Purafect Prime®) (Bacillus amyloliquefaciens, UniProt P00782, Y324L)
T1 construct: purchased Genencor International, Palo Alto Purafect Prime®
Assay: Stability of Protease in amine neutralized-anionic surfactant-containing detergent (Example 10) after incubation
Type: physicochemical
Conditions: Detergent example 10, pH 8.2, 3 weeks and 6 weeks 30° C., versus a nil PBA reference
Description: Test of stability of Protease in an Amine Neutralized-Anionic Surfactant-Containing Detergent after Incubation in Detergent, Example 10, at pH 8.2
A detergent composition, example 10, nil enzyme, nil calcium chloride dihydrate and nil phenylboronic acid (PBA), balanced to pH 8.2 using monoethanolamine, was prepared.
The protease, that sold under the trade name of Purafect Prime®, by Genencor International, Palo Alto (38.7 mg active Protease protein in 100 g detergent), was added to the above detergent. Each detergent sample was determined for the initial residual enzyme activity before incubation (Initial reference samples).
The residual enzyme activity for each sample was determined after incubation at 30° C. for 3 weeks and 6 weeks and compared to their reference sample. The residual activity was determined using the standard enzyme activity assays for the relevant enzyme.
Detergent formulations A-D, 5 g pH 8.2, were placed in duplicate into a 7 ml glass vial with an air tight lid. The residual enzyme activity was determined for the initial samples, in duplicate, before incubation.
The samples were placed into an incubator for 3 weeks and 6 weeks at 30° C. Immediately after incubation, the samples were analysed for both residual Protease. In this test the residual activity of 100% equals no loss of Protease activity compared to initial residual enzyme activity before incubation.

T1 sequence (P00782 108-382 Y324L): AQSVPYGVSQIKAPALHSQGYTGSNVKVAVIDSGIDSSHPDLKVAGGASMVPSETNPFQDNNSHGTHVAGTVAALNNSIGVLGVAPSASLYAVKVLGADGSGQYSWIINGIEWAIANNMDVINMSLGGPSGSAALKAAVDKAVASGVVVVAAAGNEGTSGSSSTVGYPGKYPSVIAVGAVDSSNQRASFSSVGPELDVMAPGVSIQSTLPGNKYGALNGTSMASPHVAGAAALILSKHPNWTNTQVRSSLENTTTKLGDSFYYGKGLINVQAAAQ

OB(O)c1ccccc1 [PBA, phenylboronic acid]
Effect of PBA addition on stability of the Protease: significantly improves stability of the Protease

Reference: patent US20130025073A1, “DETERGENT COMPOSITIONS” (priority 2011, published 2013)
